Assay results: ChEMBL document CHEMBL5331046, “Disulfiram and dithiocarbamate analogues demonstrate promising antischistosomal effects” (Eur J Med Chem, 2022)
Activity calls are given as the source filed them. The calls are words filed in the database; no cut-off is given here.

Tests used:
Schistosoma mansoni [1] = experiment: Antischistosomal activity against Schistosoma mansoni couples at 100 uM measured upto 72 hrs by bright field microscopy; assay type: functional, organism-based
Schistosoma mansoni [2] = experiment: Antischistosomal activity against Schistosoma mansoni couples assessed as reduction in pairing stability at 100 uM measured upto 72 hrs by bright field microscopy; assay type: functional
Schistosoma mansoni [3] = experiment: Antischistosomal activity against Schistosoma mansoni couples assessed as inhibition of eggs production at 100 uM measured upto 72 hrs by bright field microscopy; assay type: functional
Schistosoma mansoni [4] = experiment: Antischistosomal activity against Schistosoma mansoni couples at 25 uM measured upto 72 hrs by bright field microscopy; assay type: functional, organism-based
Schistosoma mansoni [5] = experiment: Antischistosomal activity against Schistosoma mansoni couples assessed as tegument damage at 100 uM measured upto 72 hrs by bright field microscopy; assay type: functional, organism-based
HepG2 [6] = experiment: Cytotoxicity against human HepG2 cells assessed as reduction in cell vaibility at 100 uM by WST-1 assay; assay type: toxicity, cell-based; conditions: hepg2, 100 µM
LS174T [7] = experiment: Cytotoxicity against human LS174T cells assessed as reduction in cell viability at 100 uM by WST-1 assay; assay type: toxicity, cell-based
Schistosoma mansoni [8] = experiment: Antischistosomal activity against Schistosoma mansoni couples assessed as decrease in parasite motility at 10 uM measured upto 72 hrs by bright field microscopy; assay type: functional, organism-based
Schistosoma mansoni [9] = experiment: Antischistosomal activity against Schistosoma mansoni couples assessed as decrease in parasite motility at 15 uM measured upto 72 hrs by bright field microscopy; assay type: functional; parameters: scale not given: the % may be the effect or the level left
Schistosoma mansoni [10] = experiment: Antischistosomal activity against Schistosoma mansoni couples assessed as decrease in parasite vitality at 15 uM measured upto 72 hrs by bright field microscopy; assay type: functional; parameters: scale not given: the % may be the effect or the level left
Schistosoma mansoni [11] = experiment: Antischistosomal activity against Schistosoma mansoni couples assessed as decrease in pairing stability at 15 uM measured upto 72 hrs by bright field microscopy; assay type: functional; parameters: scale not given: the % may be the effect or the level left
Schistosoma mansoni [12] = experiment: Antischistosomal activity against Schistosoma mansoni couples assessed as inhibition of eggs production at 15 uM measured upto 72 hrs by bright field microscopy; assay type: functional; parameters: scale not given: the % may be the effect or the level left
Schistosoma mansoni [13] = experiment: Antischistosomal activity against Schistosoma mansoni couples assessed as induction of phenotypes at 10 uM measured upto 72 hrs by bright field microscopy; assay type: functional, organism-based
Schistosoma mansoni [14] = experiment: Antischistosomal activity against Schistosoma mansoni couples assessed as decrease in parasite motility at 25 uM measured upto 72 hrs by bright field microscopy; assay type: functional; parameters: scale not given: the % may be the effect or the level left
Schistosoma mansoni [15] = experiment: Antischistosomal activity against Schistosoma mansoni couples assessed as decrease in parasite vitality at 10 uM measured upto 72 hrs by bright field microscopy; assay type: functional
Schistosoma mansoni [16] = experiment: Antischistosomal activity against Schistosoma mansoni couples assessed as induction of weak phenotypes at 25 uM measured upto 72 hrs by bright field microscopy; assay type: functional, organism-based
Schistosoma mansoni [17] = experiment: Antischistosomal activity against Schistosoma mansoni couples assessed as inhibition of eggs production at 10 uM measured upto 72 hrs by bright field microscopy; assay type: functional, organism-based
Schistosoma mansoni [18] = experiment: Antischistosomal activity against Schistosoma mansoni couples assessed as reduction in pairing stability at 10 uM measured upto 72 hrs by bright field microscopy; assay type: functional, organism-based
HepG2 [19] = experiment: Cytotoxicity against human HepG2 cells assessed as reduction in cell vaibility at 25 uM by WST-1 assay; assay type: toxicity, cell-based; conditions: hepg2, 25 µM
LS174T [20] = experiment: Cytotoxicity against human LS174T cells assessed as reduction in cell vaibility at 25 uM by WST-1 assay; assay type: toxicity, cell-based
Schistosoma mansoni [21] = experiment: Antischistosomal activity against Schistosoma mansoni couples assessed as decrease in parasite motility at 100 uM measured upto 72 hrs by bright field microscopy; assay type: functional
Schistosoma mansoni [22] = experiment: Antischistosomal activity against Schistosoma mansoni couples at >=50 uM measured upto 72 hrs by bright field microscopy; assay type: functional, organism-based
HepG2 [23] = experiment: Cytotoxicity against human HepG2 cells assessed as reduction in cell viability upto 100 uM by WST-1 assay; assay type: toxicity, cell-based; conditions: hepg2, 100 µM
LS174T [24] = experiment: Cytotoxicity against human LS174T cells assessed as reduction in cell vaibility upto 100 uM by WST-1 assay; assay type: toxicity, cell-based
Schistosoma mansoni [25] = experiment: Antischistosomal activity against Schistosoma mansoni couples assessed as eggs deformation at 100 uM measured upto 72 hrs by bright field microscopy; assay type: functional
Schistosoma mansoni [26] = experiment: Antischistosomal activity against Schistosoma mansoni couples assessed as inhibition of eggs production at 50 uM measured upto 72 hrs by bright field microscopy; assay type: functional, organism-based
Schistosoma mansoni [27] = experiment: Antischistosomal activity against Schistosoma mansoni couples assessed as reduction in pairing stability at 50 uM measured upto 72 hrs by bright field microscopy; assay type: functional, organism-based
Schistosoma mansoni [28] = experiment: Antischistosomal activity against Schistosoma mansoni couples assessed as gut dilations at 50 uM measured upto 72 hrs by bright field microscopy; assay type: functional, organism-based
Schistosoma mansoni [29] = experiment: Antischistosomal activity against Schistosoma mansoni couples assessed as tegument damage at 50 uM measured upto 72 hrs by bright field microscopy; assay type: functional, organism-based
Schistosoma mansoni [30] = experiment: Antischistosomal activity against Schistosoma mansoni couples assessed as intestinal dilations and tegument damage at 50 uM measured upto 72 hrs by bright field microscopy; assay type: functional, organism-based
Schistosoma mansoni [31] = experiment: Antischistosomal activity against Schistosoma mansoni couples at 10 uM measured upto 72 hrs by bright field microscopy; assay type: functional, organism-based

CCCCCN(CCCCC)C(=S)SCc1ccccc1
Activity (Schistosoma mansoni [1]): inactive

CCCCCCN(CCCCCC)C(=S)SCc1ccccc1
Activity (Schistosoma mansoni [1]): inactive

CCN(CC)C(=S)SCCCCCc1ccccc1
Activity (Schistosoma mansoni [2]): inactive | Activity (Schistosoma mansoni [3]): Active

O=C(C1CC1)N1CCN(C(=S)SCc2ccc([N+](=O)[O-])cc2)CC1
Activity (Schistosoma mansoni [4]): inactive

CCC(CC)C(=O)SCc1ccccc1
Activity (Schistosoma mansoni [1]): Active

S=C(SCc1ccccc1)n1ccnc1
Activity (Schistosoma mansoni [2]): Active | Activity (Schistosoma mansoni [3]): Active

CCN(CC)C(=S)S/C=C/c1ccccc1
Activity (Schistosoma mansoni [5]): Active

CCN(CC)C(=S)CCc1ccccc1
Activity (Schistosoma mansoni [1]): inactive

CCN(CC)C(=S)SC [METHYLDIETHYL CARBAMODITHIOATE]
Activity (HepG2 [6]): Non-Toxic | Activity (LS174T [7]): Non-Toxic | Activity (Schistosoma mansoni [1]): inactive

CCC(CC)C(=S)SCc1ccccc1
Activity (Schistosoma mansoni [1]): Active

CCN(CC)C(=S)SCc1ccc(-c2ccccc2)cc1
Activity (Schistosoma mansoni [3]): Active

CCCCS(=O)(=O)N1CCN(C(=S)SCc2ccc([N+](=O)[O-])cc2)CC1
Activity (Schistosoma mansoni [8]): Active | Activity (Schistosoma mansoni [9]): 50% | Activity (Schistosoma mansoni [10]): 90% | Activity (Schistosoma mansoni [11]): 20% | Activity (Schistosoma mansoni [12]): 40% | Activity (Schistosoma mansoni [13]): Active

CSCC[C@H](N)C(=O)N1CCN(C(=S)SCc2ccc([N+](=O)[O-])cc2)CC1.Cl
Activity (Schistosoma mansoni [14]): 60% | Activity (Schistosoma mansoni [8]): inactive | Activity (Schistosoma mansoni [15]): Active | Activity (Schistosoma mansoni [16]): Active | Activity (Schistosoma mansoni [17]): Active | Activity (Schistosoma mansoni [18]): Active | Activity (HepG2 [19]): Toxic | Activity (LS174T [20]): Toxic

CCN(CC)C(=S)NCc1ccccc1
Activity (Schistosoma mansoni [1]): inactive

CCN(CC)C(=S)SCC(N)=O
Activity (Schistosoma mansoni [2]): Active

CCN(CC)C(=S)SCCc1ccccc1
Activity (Schistosoma mansoni [2]): 100% | Activity (Schistosoma mansoni [3]): 100% | Activity (Schistosoma mansoni [21]): inactive

S=C(SCc1ccccc1)N1CCCc2ccccc21
Activity (Schistosoma mansoni [1]): inactive

CCN1CCN(C(=S)SCc2ccccc2)CC1
Activity (Schistosoma mansoni [22]): Active

CCN(CC)C(=S)SCc1ccc(C)cc1
Activity (HepG2 [23]): Non-Toxic | Activity (LS174T [24]): Non-Toxic

CCN(CC)C(=S)SCC(=O)O
Activity (Schistosoma mansoni [2]): Active

CCN(CC)C(=S)SCCN1CCOCC1
Activity (Schistosoma mansoni [2]): inactive | Activity (Schistosoma mansoni [25]): Active

CCN(CC)/C(=N/C#N)NCc1ccccc1
Activity (Schistosoma mansoni [1]): inactive

O=[N+]([O-])c1ccc(CSC(=S)N2CCN(S(=O)(=O)c3cccc4ccccc34)CC2)cc1
Activity (Schistosoma mansoni [9]): inactive

S=C(SCc1ccccc1)N1CCCCC1
Activity (Schistosoma mansoni [2]): Active | Activity (Schistosoma mansoni [3]): Active

CCN(CC)C(=S)SCc1ccc(C(=O)O)cc1
Activity (Schistosoma mansoni [1]): inactive

S=C(SCc1ccccc1)N1CCN(c2ncccn2)CC1
Activity (Schistosoma mansoni [1]): Active

CCN(CC)C(=S)Sc1ccccc1
Activity (Schistosoma mansoni [2]): inactive | Activity (Schistosoma mansoni [3]): Active

CCN(CC)C(=S)SCc1ccc(C#N)cc1
Activity (Schistosoma mansoni [14]): Active | Activity (Schistosoma mansoni [26]): Active | Activity (Schistosoma mansoni [27]): Active | Activity (Schistosoma mansoni [28]): Active | Activity (Schistosoma mansoni [29]): Active | Activity (Schistosoma mansoni [30]): Active

CCN(CC)C(=S)SCc1ccncc1
Activity (Schistosoma mansoni [1]): inactive

CCN(CC)C(=O)SCc1ccccc1
Activity (Schistosoma mansoni [3]): ~90%

O=[N+]([O-])c1ccc(CSC(=S)N2CCN(CCO)CC2)cc1
Activity (Schistosoma mansoni [1]): Active | Activity (Schistosoma mansoni [4]): Active | Activity (Schistosoma mansoni [31]): inactive
